Counter-ions that a name gives are not always drawn.
Experiments:
[1] = biological target: T1, L-type calcium channel (LTCC) (Rattus norvegicus, UniProt P22002); assay: FLIPR calcium mobilization (and/or electrophysiological) assay for L-type calcium channel; type: cell-based; settings: calcium mobilization and/or electrophysiological in vitro assay; differentiated A7r5 cells, 90 mM KCl
T1 construct: differentiated A7r5 cells were trypsinized, then seeded on tissue culture treated 96-well clear-bottom black plates; endogenous in cells; host or cells: differentiated A7r5 cells (ATCC)
Protocol: A7r5 (ATCC) cells were maintained and routinely cultured in A7r5 growth medium consisting of Dulbecco's Modified Eagles Medium containing 10% FBS, 100 U/mL penicillin, 100 μg/mL streptomycin, 4 mM L-glutamine, and 0.15% sodium bicarbonate. 80-90% confluent flasks of cells were differentiated using the following differentiation medium: A7r5 Growth Medium plus 1 mM dibutyryl cyclic AMP (Sigma). Cells were differentiated for 8 days by replacing differentiation medium every 2-3 days.
One day prior to performing this assay, differentiated A7r5 cells were trypsinized, then seeded on tissue culture treated 96-well clear-bottom black plates (Becton Dickinson, Franklin Lakes, N.J.) at a dilution of 1:1 from a confluent T150 cm^2 flask. On the day of the assay, the plates were washed with A7r5 wash buffer (127 mM NaCl, 2 mM MgCl2, 700 μM NaH2PO4, 5 mM CaCl2, 5 mM NaHCO3, 8 mM HEPES, 10 mM glucose, pH 7.4), then loaded with 0.1 mL of A7r5 wash buffer containing Fluo-4 (3 μM final concentration, Molecular Probes, Eugene, Oreg.). After 1 hour, the cells were washed with 0.1 mL A7r5 wash buffer and resuspended in 0.05 mL A7r5 assay buffer that was composed of A7r5 wash buffer plus 50 μM valinomycin (Sigma). Plates were then transferred to a FLIPR^96 for assay. The FLIPR measured basal Fluo-4 fluorescence for 15 seconds, then added 0.05 mL of each compound tested diluted in A7r5 assay buffer at final concentrations ranging from about 846 pM to about 17 μM. Fluo-4 fluorescence was then measured for 5 minutes. 0.1 mL KCl agonist dissolved in A7r5 assay buffer was then added to the cells to produce a final concentration of 90 mM KCl, and fluorescence was measured for another 45 seconds. Data were collected over the entire time course and analyzed using Excel, Graph Pad Prism, or Activity Base software.

[2] = biological target: T2, N-type calcium channel (NTCC) (Homo sapiens, UniProt Q00975); assay: FLIPR calcium mobilization (and/or electrophysiological) assay for N-type calcium channel; type: cell-based; settings: calcium mobilization and/or electrophysiological in vitro assay; differentiated IMR32 cells, 90 mM KCl, 5 μM nitrendipine
T2 construct: endogenous in cells; host or cells: differentiated IMR32 cells (ATCC)
Protocol: Unless noted otherwise, cell culture reagents were purchased from Life Technologies of Rockville, Md. IMR32 cells (American Type Culture Collection, ATCC, Manassas, Va.) were routinely cultured in growth medium consisting of minimum essential medium containing 10% fetal bovine serum (FBS, Hyclone, Logan, Utah), 100 U/mL penicillin, 100 μg/mL streptomycin, 2 mM L-glutamine, 1 mM sodium pyruvate, and 1×MEM non-essential amino acids. 80-90% confluent flasks of cells were differentiated using the following differentiation medium: Growth medium plus 1 mM dibutyryl cyclic AMP (Sigma, St. Louis, Mo.), and 2.5 μM bromodeoxyuridine (Sigma). Cells were differentiated for 8 days by replacing differentiation medium every 2-3 days.
One day prior to performing this assay, differentiated IMR32 cells were treated with 1× CellStripper, and seeded on poly-D-lysine-coated 96-well clear-bottom black plates (Becton Dickinson, Franklin Lakes, N.J.) at 200,000 cells/well. On the day of the assay, the cell plates were washed with IMR32 buffer (127 mM NaCl, 1 mM KCl, 2 mM MgCl2, 700 μM NaH2PO4, 5 mM CaCl2, 5 mM NaHCO3, 8 mM HEPES, 10 mM glucose, pH 7.4), then pre-stimulated with KCl and loaded as follows: 0.05 mL of IMR32 buffer, 0.05 mL of each compound tested diluted in IMR32 buffer containing 20 μM nitrendipine (Sigma), and 0.1 mL KCl dissolved in IMR32 buffer, plus Fluo-4 were added (3 μM final concentration, Molecular Probes, Eugene, Oreg.). Final test compound concentrations ranged from about 846 pM to about 17 μM, final nitrendipine concentration was 5 μM, and final KCl concentration was 90 mM. After 1 hour, the cells were washed twice with 0.05 mL of each compound tested in nitrendipine-containing IMR32 buffer (no KCl or Fluo-4), and then replaced with 0.1 mL of each compound tested in nitrendipine-containing IMR32 buffer. Plates were then transferred to a Fluorimetric Imaging Plate Reader (FLIPR^96, Molecular Devices, Inc., Sunnyvale, Calif.) for assay. The FLIPR measured basal Fluo-4 fluorescence for 315 seconds (i.e., 5 minutes and 15 seconds), then added 0.1 mL KCl agonist dissolved in IMR32 buffer and measured fluorescence for another 45 seconds. Final test compound concentrations on the cells after FLIPR read ranged from about 846 pM to about 17 μM, final nitrendipine concentration was 5 μM, and final KCl concentration was 90 mM. Data were collected over the entire time course and analyzed using Excel, Graph Pad Prism (version 3.02, Graph Pad, San Diego, Calif.), or Activity Base (version 5.1, IDBS, Parsippany, N.J.) software.
N-type calcium channel expressing HEK-293 cells were created in two stages. Stage 1 was created as follows. The rat α1b, and β3 cDNA expression constructs (2.5 μg each) were co-transfected into human embryonic kidney (HEK-293) cells by Lipofectamine Plus reagent (Invitrogen), as per manufacturer's instructions. 24 hours later, cells were split in limiting dilution into multiple 96-well plates in selection media containing 20 μg/mL blasticidin and 500 μg/mL geneticin, and incubated for 3 weeks at 37° C., 5% CO2, 95% humidity. Plates containing ≦1 clone per well were cultured until wells positive for single clones were confluent. Individual clones were then arrayed into columns of a destination 96-well plate, and partly split into 6-well plates for culture maintenance. Array plates were washed once with IMR32 buffer and cells loaded for 1 hour with 0.1 mL of IMR32 buffer containing Fluo-4 (3 μM final concentration, Molecular Probes). Then they were washed twice with 0.1 mL of IMR32 buffer, and replaced with 0.1 mL IMR32 buffer. Plates were then transferred to a FLIPR^96 for assay. The FLIPR measured basal Fluo-4 fluorescence for 315 seconds, then added 0.1 mL KCl agonist dissolved in IMR32 buffer and measured fluorescence for another 45 seconds. Final KCl concentration was 90 mM. Data were collected over the entire time course and analyzed using Excel, Graph Pad Prism, or Activity Base software. […]

T1 sequence (P22002 whole entry): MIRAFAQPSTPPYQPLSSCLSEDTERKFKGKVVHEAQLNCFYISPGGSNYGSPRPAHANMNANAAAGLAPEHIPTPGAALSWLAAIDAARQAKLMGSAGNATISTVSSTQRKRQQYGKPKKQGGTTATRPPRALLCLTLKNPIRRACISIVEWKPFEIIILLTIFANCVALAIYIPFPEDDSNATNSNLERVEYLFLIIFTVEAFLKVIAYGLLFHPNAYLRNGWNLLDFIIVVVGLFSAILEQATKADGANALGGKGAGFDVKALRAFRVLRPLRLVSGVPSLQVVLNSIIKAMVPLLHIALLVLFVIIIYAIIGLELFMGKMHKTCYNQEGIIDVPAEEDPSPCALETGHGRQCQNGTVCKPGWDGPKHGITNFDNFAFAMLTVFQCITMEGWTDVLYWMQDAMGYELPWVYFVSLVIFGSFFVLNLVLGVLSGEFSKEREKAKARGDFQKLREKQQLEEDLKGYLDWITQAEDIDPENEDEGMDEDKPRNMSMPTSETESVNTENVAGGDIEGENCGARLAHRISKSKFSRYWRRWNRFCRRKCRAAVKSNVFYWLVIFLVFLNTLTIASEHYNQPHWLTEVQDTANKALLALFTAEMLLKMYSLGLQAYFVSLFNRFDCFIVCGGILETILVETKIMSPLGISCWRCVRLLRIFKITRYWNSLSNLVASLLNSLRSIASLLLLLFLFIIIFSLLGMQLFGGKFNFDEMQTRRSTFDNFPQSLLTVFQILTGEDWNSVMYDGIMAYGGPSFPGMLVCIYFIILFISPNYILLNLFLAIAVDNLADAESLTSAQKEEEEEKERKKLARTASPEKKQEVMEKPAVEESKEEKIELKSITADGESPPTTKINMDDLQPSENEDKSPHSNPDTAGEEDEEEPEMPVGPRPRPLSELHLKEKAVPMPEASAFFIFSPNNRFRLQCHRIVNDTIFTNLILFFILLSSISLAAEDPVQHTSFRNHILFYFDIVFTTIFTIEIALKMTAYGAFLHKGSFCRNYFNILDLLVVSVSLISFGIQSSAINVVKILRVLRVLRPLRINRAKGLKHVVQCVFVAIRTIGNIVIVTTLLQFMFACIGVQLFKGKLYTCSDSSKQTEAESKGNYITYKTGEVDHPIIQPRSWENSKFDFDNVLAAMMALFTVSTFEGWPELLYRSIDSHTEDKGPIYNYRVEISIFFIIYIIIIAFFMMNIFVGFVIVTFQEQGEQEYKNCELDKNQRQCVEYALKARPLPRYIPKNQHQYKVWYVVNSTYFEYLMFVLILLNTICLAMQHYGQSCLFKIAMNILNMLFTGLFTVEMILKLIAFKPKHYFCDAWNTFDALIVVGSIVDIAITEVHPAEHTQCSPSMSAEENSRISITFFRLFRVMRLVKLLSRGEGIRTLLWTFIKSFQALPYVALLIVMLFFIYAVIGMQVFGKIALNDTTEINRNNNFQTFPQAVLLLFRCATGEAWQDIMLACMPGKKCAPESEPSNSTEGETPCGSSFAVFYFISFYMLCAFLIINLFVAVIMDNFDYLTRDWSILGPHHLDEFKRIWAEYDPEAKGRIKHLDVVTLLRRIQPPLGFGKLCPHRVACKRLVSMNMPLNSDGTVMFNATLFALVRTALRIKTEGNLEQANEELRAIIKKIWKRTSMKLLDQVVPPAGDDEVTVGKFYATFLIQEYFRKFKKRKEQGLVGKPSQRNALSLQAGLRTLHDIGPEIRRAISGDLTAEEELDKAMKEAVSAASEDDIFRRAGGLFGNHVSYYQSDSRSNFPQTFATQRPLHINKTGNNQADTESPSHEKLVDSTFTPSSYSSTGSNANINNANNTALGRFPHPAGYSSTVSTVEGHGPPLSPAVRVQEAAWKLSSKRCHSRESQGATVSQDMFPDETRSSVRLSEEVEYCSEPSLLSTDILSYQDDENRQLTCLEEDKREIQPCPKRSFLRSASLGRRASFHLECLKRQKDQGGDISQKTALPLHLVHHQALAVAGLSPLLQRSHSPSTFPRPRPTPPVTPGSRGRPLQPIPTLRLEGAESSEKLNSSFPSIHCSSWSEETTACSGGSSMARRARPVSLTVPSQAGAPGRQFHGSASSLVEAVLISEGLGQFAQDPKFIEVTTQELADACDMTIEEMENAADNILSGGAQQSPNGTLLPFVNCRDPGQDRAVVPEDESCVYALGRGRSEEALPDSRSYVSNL
T1 sequence (P54290 25-944 partner limits assumed): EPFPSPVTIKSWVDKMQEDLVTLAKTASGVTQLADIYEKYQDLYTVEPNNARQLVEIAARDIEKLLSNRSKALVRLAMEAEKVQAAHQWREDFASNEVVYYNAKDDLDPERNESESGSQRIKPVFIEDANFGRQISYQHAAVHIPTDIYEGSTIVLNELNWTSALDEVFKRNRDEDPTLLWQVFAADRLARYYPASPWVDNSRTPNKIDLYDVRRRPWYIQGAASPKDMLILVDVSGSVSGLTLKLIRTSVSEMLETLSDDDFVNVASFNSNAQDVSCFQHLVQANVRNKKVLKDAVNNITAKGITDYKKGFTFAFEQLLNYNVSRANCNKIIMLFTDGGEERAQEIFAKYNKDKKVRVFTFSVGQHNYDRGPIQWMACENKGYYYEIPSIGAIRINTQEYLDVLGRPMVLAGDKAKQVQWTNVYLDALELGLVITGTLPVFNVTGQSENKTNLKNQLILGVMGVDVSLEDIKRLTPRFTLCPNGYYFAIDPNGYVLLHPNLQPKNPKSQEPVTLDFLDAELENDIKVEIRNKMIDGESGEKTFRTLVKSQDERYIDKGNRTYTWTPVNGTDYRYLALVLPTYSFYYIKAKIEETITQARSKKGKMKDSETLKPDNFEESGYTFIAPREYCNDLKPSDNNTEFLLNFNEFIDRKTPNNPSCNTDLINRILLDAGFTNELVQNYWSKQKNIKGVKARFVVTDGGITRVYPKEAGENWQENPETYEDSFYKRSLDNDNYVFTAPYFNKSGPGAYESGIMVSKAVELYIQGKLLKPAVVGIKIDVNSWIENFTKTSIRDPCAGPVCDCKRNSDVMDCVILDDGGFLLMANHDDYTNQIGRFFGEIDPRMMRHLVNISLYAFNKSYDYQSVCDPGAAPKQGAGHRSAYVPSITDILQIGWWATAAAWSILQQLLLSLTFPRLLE
T1 sequence (P54290 945-1091 partner limits assumed): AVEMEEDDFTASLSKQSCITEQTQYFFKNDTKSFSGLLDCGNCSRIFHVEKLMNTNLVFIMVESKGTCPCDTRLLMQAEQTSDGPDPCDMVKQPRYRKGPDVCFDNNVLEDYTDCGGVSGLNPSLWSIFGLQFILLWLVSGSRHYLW
T1 sequence (P54287 whole entry partner): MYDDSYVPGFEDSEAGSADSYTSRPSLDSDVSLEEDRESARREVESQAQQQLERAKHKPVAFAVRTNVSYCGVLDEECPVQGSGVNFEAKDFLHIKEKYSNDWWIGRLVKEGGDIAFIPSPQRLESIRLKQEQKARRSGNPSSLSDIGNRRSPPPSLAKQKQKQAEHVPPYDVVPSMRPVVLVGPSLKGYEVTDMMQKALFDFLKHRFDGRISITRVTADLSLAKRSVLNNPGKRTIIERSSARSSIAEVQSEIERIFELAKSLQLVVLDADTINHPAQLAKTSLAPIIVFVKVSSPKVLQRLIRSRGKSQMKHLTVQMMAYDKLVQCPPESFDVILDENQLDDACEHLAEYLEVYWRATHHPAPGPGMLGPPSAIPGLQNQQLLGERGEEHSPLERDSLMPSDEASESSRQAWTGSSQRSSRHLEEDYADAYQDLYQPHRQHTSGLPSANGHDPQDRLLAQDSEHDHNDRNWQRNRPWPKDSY

SMILES: CN[C@@H](CC(C)C)C(=O)N1CCC(N(C(C)C)S(=O)(=O)c2cccc(C(F)(F)F)c2)CC1 [(2S) N-Isopropyl-N-[1-(4-methyl-2-methylaminopentanoyl)-piperidin-4-yl]-3-trifluoromethylbenzenesulfonamide fumarate]
- IC50 [1]: > 20000 nM
- IC50 [2]: 870 nM

SMILES: CN[C@@H](CC(C)C)C(=O)N1CCC(N(C)S(=O)(=O)c2cccc(C(F)(F)F)c2)CC1 [(2S) N-Methyl-N-[1-(4-methyl-2-methylaminopentanoyl)-piperidin-4-yl]-3-trifluoromethylbenzenesulfonamide fumarate]
- IC50 [1]: 5120 nM
- IC50 [2]: 390 nM

SMILES: CC(C)C[C@H](N)C(=O)N1CCC(N(C2CC2)S(=O)(=O)c2ccccc2)CC1 [(2S) N-[1-(2-amino-4-methylpentanoyl)piperidin-4-yl]-N-cyclopropyl-benzenesulfonamide]
- IC50 [1]: 10000 to 20000 nM
- IC50 [2]: 4280 nM

SMILES: CN[C@@H](CC(C)C)C(=O)N1CCC(N(C2CC2)S(=O)(=O)c2cccc(C(F)(F)F)c2)CC1 [(2S) N-cyclopropyl-N-[1-(4-methyl-2-methylamino-pentanoyl)piperidin-4-yl]-3-trifluoromethylbenzenesulfonamide]
- IC50 [1]: 10000 nM
- IC50 [2]: 360 nM

SMILES: CN[C@@H](CC(C)C)C(=O)N1CCC(N(CC(C)C)S(=O)(=O)c2cccc(C(F)(F)F)c2)CC1 [(2S) N-i-butyl-N-[1-(4-methyl-2-methylaminopentanoyl)piperidin-4-yl]-3-trifluoromethylbenzenesulfonamide]
- IC50 [1]: 9120 nM
- IC50 [2]: 950 nM

SMILES: CNC(Cc1ccccc1C)C(=O)N1CCC(N(C2CC2)S(=O)(=O)c2cccc(C(F)(F)F)c2)CC1 (centres unmarked) [N-Cyclopropyl-N-[1-(2-methylamino-3-o-tolylpropionyl)piperidin-4-yl]-3-trifluoromethylbenzenesulfonamide]
- IC50 [1]: 10000 to 20000 nM
- IC50 [2]: 390 nM

SMILES: CCCC(CC(=O)N1CCC(N(C2CC2)S(=O)(=O)c2cccc(C(F)(F)F)c2)CC1)N1CCSCC1 (centres unmarked) [N-Cyclopropyl-N-[1-(3-thiomorpholin-4-yl-hexanoyl)piperidin-4-yl]-3-trifluoromethylbenzenesulfonamide]
- IC50 [1]: 10000 to 20000 nM
- IC50 [2]: 280 nM

SMILES: CCCc1ccc(S(=O)(=O)N2CCC(N(C3CC3)S(=O)(=O)c3cccc(C(F)(F)F)c3)CC2)cc1 [N-Cyclopropyl-N-[1-(4-propylphenylsulfonyl)piperidin-4-yl]-3-trifluoromethylbenzenesulfonamide]
- IC50 [1]: 940 nM
- IC50 [2]: 440 nM

SMILES: O=S(=O)(c1cccc(C(F)(F)F)c1)N(C1CC1)C1CCN(CCOC(c2ccc(F)cc2)c2ccc(F)cc2)CC1 [N-Cyclopropyl-N-{1-[2-bis(4-fluorophenyl)methoxyethyl]piperidin-4-yl}-3-trifluoromethylbenzenesulfonamide]
- IC50 [1]: 2230 nM
- IC50 [2]: 780 nM

SMILES: O=S(=O)(c1cccc(C(F)(F)F)c1)N(C1CC1)C1CCN(CCCC(c2ccc(F)cc2)c2ccc(F)cc2)CC1 [N-Cyclopropyl-N-{1-[4,4-bis(4-fluorophenyl)butyl]piperidin-4-yl}-3-trifluoromethylbenzenesulfonamide]
- IC50 [1]: 3780 nM
- IC50 [2]: 110 nM

SMILES: COc1ccc(C(=O)N2CCC(N(C3CC3)S(=O)(=O)c3cccc(C(F)(F)F)c3)CC2)cc1C(F)(F)F [N-Cyclopropyl-N-{1-[(3-trifluoromethyl-4-methoxy)benzoyl]piperidin-4-yl}-3-trifluoromethylbenzenesulfonamide]
- IC50 [1]: 4570 nM
- IC50 [2]: 300 nM

SMILES: O=S(=O)(c1cccc(C(F)(F)F)c1)N(C1CC1)C1CCN(Cc2ccnc3ccccc23)CC1 [N-cyclopropyl-N-[1-(4-quinolinylmethyl)piperidin-4-yl]-3-trifluoromethylbenzenesulfonamide]
- IC50 [1]: 1700 nM
- IC50 [2]: 860 nM

SMILES: O=C(CC=C(c1ccc(F)cc1)c1ccc(F)cc1)N1CCC(N(C2CC2)S(=O)(=O)c2ccccc2)CC1 [N-cyclopropyl-N-{1-[4,4-bis(4-fluorophenyl)but-3-enoyl]piperidin-4-yl}benzenesulfonamide]
- IC50 [1]: 2590 nM
- IC50 [2]: 1240 nM

SMILES: O=C(CCC(c1ccc(F)cc1)c1ccc(F)cc1)N1CCC(N(C2CC2)S(=O)(=O)c2cccc(F)c2)CC1 [N-cyclopropyl-N-{1-[4,4-bis(4-fluorophenyl)butanoyl]piperidin-4-yl}-3-fluorobenzenesulfonamide]
- IC50 [1]: 1430 nM
- IC50 [2]: 970 nM

SMILES: O=C(CCC(c1ccc(F)cc1)c1ccc(F)cc1)N1CCC(N(C2CC2)S(=O)(=O)c2ccccc2)CC1 [N-cyclopropyl-N-{1-[4,4-bis(4-fluorophenyl)butanoyl]piperidin-4-yl}benzenesulfonamide]
- IC50 [1]: 3240 nM
- IC50 [2]: 1090 nM

SMILES: NC(Cc1ccc(F)cc1)C(=O)N1CCC(N(C2CC2)S(=O)(=O)c2cccc(C(F)(F)F)c2)CC1 (centres unmarked) [N-{1-[2-Amino-3-(4-fluorophenyl)propionyl]piperidin-4-yl}-N-cyclopropyl-3-trifluoromethylbenzenesulfonamide]
- IC50 [1]: 8600 nM
- IC50 [2]: 180 nM

— patent US9000174B2, “4-phenylsulfonamidopiperidines as calcium channel blockers” (Purdue Pharma L.P., priority 2004, dated 2015)
